Laboratory results: the supplement of paper PMC10307832

Tests used:
Assay in all cases: relative viability (nuclei count vs DMSO), 5 days (fraction); higher = more cells survive
[1] = compound: C[C@@H](N)c1ccc(C(=O)Nc2ccnc3[nH]ccc23)cc1 + Nc1ncn([C@H]2C[C@H](O)[C@@H](CO)O2)c(=O)n1 [Decitabine] (partner 2 µM)
Outline: (§1)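 Values are medians from duplicate plates. Each reflects relative viability, defined as the nuclei count of treated wells over that of vehicle wells. Lung cancer cell lines in 1536-well plates were pin-tool dosed one day after seeding with one drug alone or with a fixed anchor-drug dose plus five library-drug doses (not always all listed) in √10 steps, then fixed, stained and imaged at 4× after 5 days.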

Tanzisertib + Phenformin = compound: O[C@H]1CC[C@H](Nc2ncc3nc(Nc4c(F)cc(F)cc4F)n([C@H]4CCOC4)c3n2)CC1 [Tanzisertib] + N=C(N)NC(=N)NCCc1ccccc1 [Phenformin] (partner 250 µM)
Outline: as §1

[2] = compound: C1CNCCC1C2=CC(=NN2)C3=CC=NC=C3 + Cc1nc(NC(=O)N2CCC[C@H]2C(N)=O)sc1-c1ccnc(C(C)(C)C(F)(F)F)c1 [Alpelisib] (partner 2 µM)
Outline: as §1

Tanzisertib + Pictilisib = compound: O[C@H]1CC[C@H](Nc2ncc3nc(Nc4c(F)cc(F)cc4F)n([C@H]4CCOC4)c3n2)CC1 [Tanzisertib] + CS(=O)(=O)N1CCN(Cc2cc3nc(-c4cccc5[nH]ncc45)nc(N4CCOCC4)c3s2)CC1 [Pictilisib] (partner 1 µM)
Outline: as §1

Cell Line	relative viability ([1]; first compound 0.04 µM)	relative viability ([1]; first compound 0.1265 µM)	relative viability ([1]; first compound 0.4 µM)	relative viability ([1]; first compound 1.265 µM)	relative viability ([1]; first compound 4 µM)	relative viability (Tanzisertib + Phenformin; first compound 0.08 µM)	relative viability (Tanzisertib + Phenformin; first compound 0.253 µM)	relative viability (Tanzisertib + Phenformin; first compound 0.8 µM)	relative viability (Tanzisertib + Phenformin; first compound 2.53 µM)	relative viability (Tanzisertib + Phenformin; first compound 8 µM)	relative viability ([2]; first compound 0.08 µM)	relative viability ([2]; first compound 0.8 µM)	relative viability ([2]; first compound 2.53 µM)	relative viability ([2]; first compound 8 µM)	relative viability (Tanzisertib + Pictilisib; first compound 0.08 µM)	relative viability (Tanzisertib + Pictilisib; first compound 0.253 µM)	relative viability (Tanzisertib + Pictilisib; first compound 0.8 µM)	relative viability (Tanzisertib + Pictilisib; first compound 2.53 µM)	relative viability (Tanzisertib + Pictilisib; first compound 8 µM)
SW 900	0.412	0.43	0.43	0.509	0.421	0.725	0.601	0.749	0.587	0.512	–	–	–	–	–	–	–	–	–
NCI-H1944	0.524	0.425	0.458	0.495	0.404	0.23	0.197	0.21	0.198	0.203	0.85	0.601	0.83	0.938	0.364	0.344	0.351	0.331	0.336
NCI-H727	1	1.03	0.942	0.764	0.908	0.581	0.504	0.458	0.497	0.465	0.478	0.552	0.542	0.524	0.356	0.463	0.363	0.333	0.307
NCI-H1650	0.379	0.542	0.51	0.431	0.447	0.317	0.425	0.407	0.307	0.314	–	–	–	–	0.656	0.538	0.666	0.586	0.438
HCC-827	–	0.33	0.379	0.227	0.331	0.409	0.417	0.398	0.382	0.242	0.97	0.668	0.916	0.972	0.876	0.937	1.14	0.885	0.536
HCC-366	0.323	0.331	0.353	0.405	0.343	0.671	0.599	0.651	0.681	0.646	0.561	0.233	0.426	0.378	0.138	0.15	0.134	0.128	0.114
HARA	0.54	0.672	0.52	0.611	0.401	0.541	0.401	0.451	0.41	0.333	0.821	0.811	0.898	0.82	0.475	0.337	0.321	0.436	0.412
NCI-H322M	0.744	0.833	0.906	0.809	0.876	0.788	0.728	0.832	0.81	0.721	1.39	0.7	0.933	0.761	0.506	0.648	0.591	0.494	0.459
LXF-289	0.406	0.362	0.362	0.373	0.331	0.55	0.532	0.519	0.545	0.535	1.03	0.973	1.06	1	0.887	0.745	0.459	0.735	0.804
PC-3 [JPC-3]	0.776	0.807	0.857	0.824	0.625	0.488	0.492	0.509	0.494	0.461	1	1.03	1.05	1.02	0.741	0.823	0.688	0.673	0.577
CAL-12T	–	–	–	–	–	0.517	0.566	0.625	0.628	0.556	0.929	1.56	1.51	1.28	0.416	0.468	0.438	0.485	0.353
COR-L 105	0.651	0.674	0.627	0.495	0.526	0.467	0.465	0.449	0.473	0.327	0.954	1.05	1.11	0.852	0.428	0.387	0.404	0.442	0.263
NCI-H2347	0.657	0.594	0.623	0.566	0.54	0.445	–	0.434	0.306	0.376	0.989	0.938	1.17	1.01	0.781	0.444	0.501	0.478	0.715
NCI-H2126	0.56	0.583	0.596	0.599	0.572	0.566	0.548	0.545	0.534	0.516	0.761	0.634	0.777	0.752	0.522	0.464	0.503	0.494	0.52
NCI-H838	0.482	0.47	0.466	0.415	0.3	0.666	0.608	0.628	0.587	0.541	0.984	1.11	1.03	0.996	0.564	0.424	0.493	0.536	0.493
A549	0.343	0.254	0.374	0.316	0.286	0.236	0.153	0.183	0.309	0.168	0.55	0.65	0.881	0.848	0.564	0.496	0.588	0.534	0.428
NCI-H2342	0.758	0.624	0.809	0.798	0.746	0.618	0.643	0.57	0.557	0.532	–	–	–	–	–	–	–	–	–

Cell Line	relative viability ([1]; first compound 0.04 µM)	relative viability ([1]; first compound 0.1265 µM)	relative viability ([1]; first compound 0.4 µM)	relative viability ([1]; first compound 1.265 µM)	relative viability ([1]; first compound 4 µM)	relative viability (Tanzisertib + Phenformin; first compound 0.08 µM)	relative viability (Tanzisertib + Phenformin; first compound 0.253 µM)	relative viability (Tanzisertib + Phenformin; first compound 0.8 µM)	relative viability (Tanzisertib + Phenformin; first compound 2.53 µM)	relative viability (Tanzisertib + Phenformin; first compound 8 µM)	relative viability ([2]; first compound 0.08 µM)	relative viability ([2]; first compound 0.8 µM)	relative viability ([2]; first compound 2.53 µM)	relative viability ([2]; first compound 8 µM)	relative viability (Tanzisertib + Pictilisib; first compound 0.08 µM)	relative viability (Tanzisertib + Pictilisib; first compound 0.253 µM)	relative viability (Tanzisertib + Pictilisib; first compound 0.8 µM)	relative viability (Tanzisertib + Pictilisib; first compound 2.53 µM)	relative viability (Tanzisertib + Pictilisib; first compound 8 µM)
NCI-H1623	–	–	–	–	–	0.587	0.574	0.639	0.572	0.551	–	–	–	–	–	–	–	–	–
SK-LU-1	0.587	0.654	0.585	0.516	0.472	0.694	0.542	0.566	0.509	0.561	1.08	1.06	1.05	0.942	0.58	0.539	0.565	0.633	0.527
NCI-H2085	0.528	0.573	0.742	0.561	0.521	0.739	0.724	0.81	0.715	0.461	0.926	0.514	1.02	0.98	0.474	0.454	0.465	0.478	0.435
NCI-H460	0.525	0.485	0.581	0.575	0.451	0.572	0.522	0.489	0.54	0.523	0.381	0.343	0.593	0.62	0.495	0.368	0.362	0.317	0.0876
Calu-6	–	–	–	–	–	–	–	–	–	–	0.896	1.05	1.03	1.04	0.901	1.01	0.865	1.03	0.976
RERF-LC-KJ	0.762	0.764	0.75	0.806	0.634	0.45	0.39	0.439	0.4	0.384	0.803	0.709	0.963	0.89	0.634	0.606	0.571	0.511	0.458
LCLC-103H	0.652	0.69	0.724	0.716	0.652	0.375	0.327	0.309	0.345	0.343	1.05	0.966	1.05	1	0.698	0.642	0.648	0.616	0.608
HCC-15	0.698	0.613	0.623	0.612	0.514	0.576	0.487	0.509	0.467	0.423	0.856	0.856	0.898	0.839	0.836	0.651	0.786	0.698	0.494
NCI-H1563	–	–	–	–	–	0.662	0.688	0.654	0.681	0.624	0.709	0.932	0.95	0.989	0.661	0.638	0.572	0.601	0.607
NCI-H522	0.704	0.683	0.727	0.694	0.715	0.783	0.57	0.667	0.677	0.572	–	–	–	–	–	–	–	–	–
NCI-H1299	–	–	–	–	–	–	–	–	–	–	1.13	1.22	1.04	1.06	0.762	0.713	0.699	0.893	0.729
ChaGo-K-1	0.569	0.526	0.548	0.529	0.456	0.547	0.545	0.447	0.493	0.482	–	–	–	–	0.657	0.819	0.845	0.627	0.482
NCI-H1648	0.746	0.545	0.762	0.754	0.815	–	–	–	–	–	–	–	–	–	–	–	–	–	–
EBC-1	–	–	–	–	–	–	–	–	–	–	0.926	0.704	0.819	0.857	0.468	0.454	0.405	0.338	0.275
NCI-H2228	–	–	–	–	–	0.399	0.279	0.397	0.275	0.227	0.769	0.872	0.851	0.617	0.499	0.444	0.32	0.291	0.367
IA-LM	–	–	–	–	–	–	–	–	–	–	0.834	0.763	0.762	0.837	0.375	0.335	0.339	0.255	0.362
NCI-H1703	–	–	–	–	–	–	–	–	–	–	0.345	0.268	0.347	0.278	0.272	0.245	0.258	0.224	0.218
